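Grown in 96-well plates, cells were treated for 48 hours with each compound at five concentrations. Insufficient inhibition: endpoint recorded as highest concentration tested. The concentration for full growth arrest is given as TGI.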
What was measured:
Experiment in all cases: NCI anticancer screen, dose series, 48 h
786-0 renal = tested on: 786-0 renal
A498 renal = tested on: A498 renal
A549 NSCLC = tested on: A549 NSCLC
ACHN renal = tested on: ACHN renal
BT-549 breast = tested on: BT-549 breast
CAKI-1 renal = tested on: CAKI-1 renal
COLO 205 colon = tested on: COLO 205 colon
DU-145 prostate = tested on: DU-145 prostate
EKVX NSCLC = tested on: EKVX NSCLC
HCC-2998 colon = tested on: HCC-2998 colon
HCT-116 colon = tested on: HCT-116 colon
HCT-15 colon = tested on: HCT-15 colon
HOP-62 NSCLC = tested on: HOP-62 NSCLC
HT29 colon = tested on: HT29 colon
IGROV1 ovarian = tested on: IGROV1 ovarian
K-562 leukemia = tested on: K-562 leukemia
KM12 colon = tested on: KM12 colon
LOX IMVI melanoma = tested on: LOX IMVI melanoma
M14 melanoma = tested on: M14 melanoma
MALME-3M melanoma = tested on: MALME-3M melanoma
MCF7 breast = tested on: MCF7 breast
MDA-MB-231 breast = tested on: MDA-MB-231 breast
MDA-MB-435 = tested on: MDA-MB-435
MOLT-4 leukemia = tested on: MOLT-4 leukemia
NCI-H226 lung = tested on: NCI-H226 lung
NCI-H23 lung = tested on: NCI-H23 lung
NCI-H460 lung = tested on: NCI-H460 lung
NCI/ADR-RES ovarian = tested on: NCI/ADR-RES ovarian
OVCAR-3 ovarian = tested on: OVCAR-3 ovarian
OVCAR-4 ovarian = tested on: OVCAR-4 ovarian
OVCAR-5 ovarian = tested on: OVCAR-5 ovarian
OVCAR-8 ovarian = tested on: OVCAR-8 ovarian
PC-3 prostate = tested on: PC-3 prostate
RPMI-8226 leukemia = tested on: RPMI-8226 leukemia
SF-268 CNS = tested on: SF-268 CNS
SF-295 CNS = tested on: SF-295 CNS
SF-539 CNS = tested on: SF-539 CNS
SK-MEL-2 melanoma = tested on: SK-MEL-2 melanoma
SK-MEL-28 melanoma = tested on: SK-MEL-28 melanoma
SK-MEL-5 melanoma = tested on: SK-MEL-5 melanoma
SK-OV-3 ovarian = tested on: SK-OV-3 ovarian
SNB-19 CNS = tested on: SNB-19 CNS
SR leukemia = tested on: SR leukemia
SW-620 colon = tested on: SW-620 colon
T-47D breast = tested on: T-47D breast
TK-10 renal = tested on: TK-10 renal
U251 CNS = tested on: U251 CNS
UACC-257 melanoma = tested on: UACC-257 melanoma
UACC-62 melanoma = tested on: UACC-62 melanoma
UO-31 renal = tested on: UO-31 renal
CCRF-CEM leukemia = tested on: CCRF-CEM leukemia
HL-60(TB) leukemia = tested on: HL-60(TB) leukemia
HS 578T breast = tested on: HS 578T breast
NCI-H522 lung = tested on: NCI-H522 lung
RXF 393 renal = tested on: RXF 393 renal
SN12C renal = tested on: SN12C renal
SNB-75 CNS = tested on: SNB-75 CNS
HOP-92 NSCLC = tested on: HOP-92 NSCLC

Measured: TGI

CC12CCC(C(Nc3cc(C(F)(F)F)cc(C(F)(F)F)c3)C1=O)C2(C)C (centres undefined)
> 100 µM: 786-0 renal | A498 renal | A549 NSCLC | ACHN renal | BT-549 breast | CAKI-1 renal | COLO 205 colon | DU-145 prostate | EKVX NSCLC | HCC-2998 colon | HCT-116 colon | HCT-15 colon | HOP-62 NSCLC | HT29 colon | IGROV1 ovarian | K-562 leukemia | KM12 colon | LOX IMVI melanoma | M14 melanoma | MALME-3M melanoma | MCF7 breast | MDA-MB-231 breast | MDA-MB-435 | MOLT-4 leukemia | NCI-H226 lung | NCI-H23 lung | NCI-H460 lung | NCI/ADR-RES ovarian | OVCAR-3 ovarian | OVCAR-4 ovarian | OVCAR-5 ovarian | OVCAR-8 ovarian | PC-3 prostate | RPMI-8226 leukemia | SF-268 CNS | SF-295 CNS | SF-539 CNS | SK-MEL-2 melanoma | SK-MEL-28 melanoma | SK-MEL-5 melanoma | SK-OV-3 ovarian | SNB-19 CNS | SR leukemia | SW-620 colon | T-47D breast | TK-10 renal | U251 CNS | UACC-257 melanoma | UACC-62 melanoma | UO-31 renal

O=S(CC1(O)CCCCC1)c1ccccc1 (centres undefined)
> 100 µM: 786-0 renal | A549 NSCLC | ACHN renal | BT-549 breast | CAKI-1 renal | CCRF-CEM leukemia | COLO 205 colon | DU-145 prostate | EKVX NSCLC | HCC-2998 colon | HCT-116 colon | HCT-15 colon | HL-60(TB) leukemia | HOP-62 NSCLC | HS 578T breast | HT29 colon | IGROV1 ovarian | K-562 leukemia | KM12 colon | LOX IMVI melanoma | M14 melanoma | MALME-3M melanoma | MCF7 breast | MDA-MB-231 breast | MOLT-4 leukemia | NCI-H226 lung | NCI-H23 lung | NCI-H460 lung | NCI-H522 lung | NCI/ADR-RES ovarian | OVCAR-4 ovarian | OVCAR-5 ovarian | OVCAR-8 ovarian | PC-3 prostate | RXF 393 renal | SF-268 CNS | SF-295 CNS | SK-MEL-2 melanoma | SK-MEL-28 melanoma | SK-MEL-5 melanoma | SK-OV-3 ovarian | SN12C renal | SNB-19 CNS | SNB-75 CNS | SR leukemia | SW-620 colon | T-47D breast | TK-10 renal | U251 CNS | UACC-257 melanoma | UACC-62 melanoma | UO-31 renal
2.32 µM: RPMI-8226 leukemia

Oc1c(Cl)c(Cl)c(O)c(CCNc2ccc3ncccc3c2)c1Cl
88.4 µM: HT29 colon
35.3 µM: MALME-3M melanoma
50.6 µM: OVCAR-8 ovarian
18.8 µM: MDA-MB-435 | SF-268 CNS
41.9 µM: HCT-116 colon
39.4 µM: SF-539 CNS
47.3 µM: A549 NSCLC
95.6 µM: SW-620 colon
36.8 µM: U251 CNS
89.2 µM: COLO 205 colon
37.7 µM: RXF 393 renal
33.9 µM: NCI/ADR-RES ovarian
4.29 µM: NCI-H522 lung
43.6 µM: UACC-257 melanoma
30.8 µM: MCF7 breast
27.6 µM: SK-OV-3 ovarian
60 µM: DU-145 prostate
41.8 µM: NCI-H460 lung
15.9 µM: KM12 colon
34.3 µM: 786-0 renal
28.9 µM: SN12C renal
24.1 µM: SF-295 CNS
35 µM: OVCAR-3 ovarian
> 100 µM: HL-60(TB) leukemia | HOP-92 NSCLC | K-562 leukemia | MOLT-4 leukemia | OVCAR-4 ovarian | PC-3 prostate | T-47D breast
23.8 µM: UACC-62 melanoma
5.52 µM: SK-MEL-5 melanoma
36.7 µM: TK-10 renal
27.1 µM: M14 melanoma
54.6 µM: SK-MEL-28 melanoma
33.4 µM: SNB-75 CNS
28 µM: ACHN renal | HCC-2998 colon | SR leukemia
13.1 µM: HS 578T breast
31.2 µM: UO-31 renal
21 µM: IGROV1 ovarian
25.4 µM: CAKI-1 renal
22.8 µM: SK-MEL-2 melanoma
25.9 µM: NCI-H23 lung
36 µM: EKVX NSCLC
40.4 µM: OVCAR-5 ovarian
27.7 µM: HOP-62 NSCLC
32.3 µM: SNB-19 CNS
30 µM: HCT-15 colon

— PubChem BioAssay (NCI)
